Source: patent US11731977B2, “SGC stimulators” (Cyclerion Therapeutics, Inc., priority 2016, dated 2023)
Marks after values point to notes of the source that are not given here.

What was measured:
cGMP in rat CSF = assay: Rat CSF biomarker (cGMP) measurement (Example 7); type: in vivo
Experimental: This experiment was to determine the effect of different doses of a compound of the invention on the cGMP response as well as the compound concentration in rat CSF and compound concentration in rat plasma. Protocol. Each rat was sampled one time or multiple times with 3 or more days in between each dosing. Day before the experiment. Fast rats overnight with ad libitum access to water. Day of the experiment. Compound and cyclic guanosine monophosphate (cGMP) in rat CSF was determined following oral dosing. Male Sprague-Dawley rats with an indwelling catheter placed in the cisterna magna were used. The rats were dosed with 0 mg/kg (n=15), 3 mg/kg (n=19) and 10 mg/kg (n=20) of a compound of the invention formulated as a suspension in 0.5% methylcellulose, 0.5% Tween80. PO doses were administered by oral gavage and delivered to the stomach using a syringe and gavage tube. Following oral dosage administration, the gavage tube was flushed with approximately 0.5 mL of water to ensure complete delivery of the full dose. Plasma and CSF samples were collected under isoflurane anesthesia as follows: samples of CSF were collected at 1 hour and 6 hours post-dosing and samples of blood were collected 1 h post-dosing. CSF samples were collected through the intracisternal catheter. Approximately 20 μL of CSF and discard (dead volume is 14-16 μL); then withdraw approximately 50 μL of CSF in eppendorf tubes containing 5 μL of glacial acetic acid. Snap freeze CSF by immersion in liquid nitrogen. Blood samples (0.25 mL) were collected through retro-orbital sampling. These samples were kept on ice until processed for plasma. Blood samples were centrifuged at 3200 rpm for 10 minutes at approximately 5° C. within 1 hour of collection. Plasma was directly transferred to a 96-well plate tube (0.125 mL). Plug caps were placed on the tubes and the tubes frozen at approximately −70° C. and stored until analysis. Plasma was collected and analyzed for the presence of a compound. Quantitation of Compounds and cGMP. The compound of the invention, cGMP and the internal standard were extracted from plasma and CSF by precipitation. Samples were analyzed using liquid chromatography (LC) with tandem mass spectrometric detection (MS/MS) using electrospray ionization. The standard curve range was from 1 to 1000 ng/mL. Results of the compounds described herein in this assay are illustrated in Table 7 below (3 and 10 mg/kg dose). Statistics were determined by planned comparison t-tests.

cGMP in mouse brain = assay: Compound-induced cGMP in mouse brain (Example 9); type: in vivo; settings: 30 min after dosing
Experimental: Objective. To determine the effect of different doses of a compound of the invention in cGMP response and compound concentration in different areas of the mouse brain (cortex, hippocampus, cerebellum and striatum) and compound concentration in blood
Protocol. Mice (n=7-8 per experimental condition) were dosed PO with vehicle (1% hydroxypropyl methyl cellulose, 0.2% Tween80, 0.5% methyl cellulose) or 0.3, 1, 3 or 10 mg/Kg of Compound I-1 prepared in vehicle. Thirty minutes after dosing, under isoflurane anesthesia, the mouse was decapitated and the brain was removed and placed into an ice-cold petri dish containing slushy dissection solution (saturated with 95% O2·5% CO2). Using an ice-cold spatula, the brain was transferred to mouse brain matrix with coronal spacing for slicing at 1 mm intervals, as shown in FIG. 5 (not to scale, just a scheme).
The sliced brain was transferred back into petri dish containing slushy dissection solution with IBMX 0.5 mM (saturated with 95% O2/5% CO2). The dorsal striatum is dissected first, followed by the hippocampus second, followed by the medial prefrontal cortex third, and lastly, the cerebellum fourth. After each region is dissected the dissected tissue was immediately placed into an eppendorf that was placed on dry ice for the previous 30 minutes. Small pieces of tissue froze very fast, within 10 seconds approximately. After all regions were placed in an eppendorf, the eppendorfs were then snap frozen by immersion into liquid nitrogen. The whole blood sample was collected from the trunk area using mitra tips. Tissue samples were stored in the −80° C. and mitra tips at room temperature. cGMP and compound levels in brain and blood were determined by LC/MS; protein quantification of brain samples was determined using BCA protein assay kit.

rats [1] = assay: Acute and tonic pain: formalin test, score (Example 13); type: in vivo, rat; settings: Compound I-1 p.o. 10 mg/kg, 120 minutes after treatment
Experimental: Formalin Test. 2.5% formalin solution was injected by subplantar route into the right hind paw. Scoring of pain behavior was performed in rats for 36 minutes every 3 minutes according to the following scores:
0=normal behavior of the injected hind limb to support the body
1=slight touching of the injected paw on the floor to lightly support or not support the body
2=total withdrawal of the injected paw
3=licking, biting or shaking of the injected paw

rats [2] = assay: Post-operative pain: Brennan model, electronic Von Frey test (Example 13); type: in vivo, rat; settings: Compound I-1 p.o. 10 mg/kg, 120 minutes after treatment
Excerpt: Surgery: Surgery was done under gas anesthesia (2.5% isoflurane/3 L/min). For all rats, the plantar aspect of the left hind paw was exposed and a 1 cm longitudinal incision was made using a surgical blade, through the skin and fascia of the plantar aspect of the foot, starting 0.5 cm from the proximal edge of the heel and extending toward the toes. The plantaris muscle was elevated and incised longitudinally whereas the insertions remained intact. After hemostasis with gentle pressure, the skin was stitched up with two sutures. After surgery, animals recovered in their cages.
Electronic Von Frey Test: Tactile allodynia was assessed using the electronic Von Frey test 24 h after surgery. […] The apparatus exerted a steady force on the hind paws. […] Each reaction threshold measurement was repeated three times for both hind paws with intervals of approximately 2 to 3 mins.

## Fc1ccccc1Cc1nc(-c2nc(C(F)(F)F)n[nH]2)cn2ccnc12 [Compound I-1, 8-(2-fluorobenzyl)-6-(3-(trifluoromethyl)-1H-1,2,4-triazol-5-yl)imidazo[1,2-a]pyrazine]
cGMP in rat CSF; 3 mg/kg PO
  CSF Conc. (nM @ 1 h): 7.2* nM
  CSF Conc. (nM @ 6 h): 6.7 nM
cGMP in rat CSF; 10 mg/kg PO
  CSF Conc. (nM @ 1 h): 14.8** nM
  CSF Conc. (nM @ 6 h): 13.8* nM
cGMP in mouse brain; 0.3 MPK PO
  CEREBELLUM nM cGMP/μg protein: 0.3199 nM cGMP/μg protein
  CORTEX nM cGMP/μg protein: 0.07761 nM cGMP/μg protein
  Hippocampus nM cGMP/μg protein: 0.04255 nM cGMP/μg protein
  STRIATUM nM cGMP/μg protein: 0.02261 nM cGMP/μg protein
cGMP in mouse brain; 1 MPK PO
  CEREBELLUM nM cGMP/μg protein: 0.4577 nM cGMP/μg protein
  CORTEX nM cGMP/μg protein: 0.08064 nM cGMP/μg protein
  Hippocampus nM cGMP/μg protein: 0.04302 nM cGMP/μg protein
  STRIATUM nM cGMP/μg protein: 0.03124 nM cGMP/μg protein
cGMP in mouse brain; 3 MPK PO
  CEREBELLUM nM cGMP/μg protein: 0.7524 nM cGMP/μg protein
  CORTEX nM cGMP/μg protein: 0.1081 nM cGMP/μg protein
  Hippocampus nM cGMP/μg protein: 0.0519 nM cGMP/μg protein
  STRIATUM nM cGMP/μg protein: 0.03719 nM cGMP/μg protein
cGMP in mouse brain; 10 MPK PO
  CEREBELLUM nM cGMP/μg protein: 1.796**** nM cGMP/μg protein
  CORTEX nM cGMP/μg protein: 0.1734* nM cGMP/μg protein
  Hippocampus nM cGMP/μg protein: 0.1171** nM cGMP/μg protein
  STRIATUM nM cGMP/μg protein: 0.04612* nM cGMP/μg protein
Rats [1]; Formalin test - score (early phase)
  % of activity vs. vehicle: 57%
Rats [1]; Formalin test - score (late phase)
  % of activity vs. vehicle: 32%
Rats [2]
  % of activity vs. vehicle: 31%
